Test results as given in a melting point compilation (Tetko et al.; mined from patent text by program, amines drawn as free bases though some values may be those of a salt).

First: Cc1cc(CCC(=O)OCC(CO)(COC(=O)CCc2cc(C)c(O)c(C(C)(C)C)c2)COC(=O)CCc2cc(C)c(O)c(C(C)(C)C)c2)cc(C(C)(C)C)c1O
Second: CC(C)C(=O)N(O)C(c1ccccc1)c1cc(C(C)(C)C)c(O)c(C(C)(C)C)c1 (stereo not given)
The melting point of the first is lower: 40 to 50 °C for the first, 179 to 180 °C for the second.

First: Cc1cc(-c2cc(=O)c3ccccc3o2)cc(C)c1O
Second: O=c1oc2ccc(Cl)cc2c(O)c1CCCOc1ccccc1
The melting point of the first is higher: 255 to 256 °C for the first, 162 to 163 °C for the second.

Compared with `C=C(C)[C@@H]1CC[C@]2(C(=O)N[C@H]3C[C@@H](C(=O)N4CCCC4)C3(C)C)CC[C@]3(C)[C@H](CC[C@@H]4[C@@]5(C)CC[C@H](OC(=O)CC(C)(C)C(=O)O)C(C)(C)[C@@H]5CC[C@]43C)[C@@H]12`, `CC(CO)CCCC(C)C1CCC2C3CC=C4CCCC(O)C4(C)C3CCC12C` (stereo not given) is higher in melting point: 110 to 114 °C for the first, 158 to 160 °C for the second.

First: COC(C)=CC(=O)Nc1cccc(C)c1
Second: COc1cc(NC(C)=O)ccc1OCCO
The melting point of the first is lower: 106 °C for the first, 157 to 159 °C for the second.

First: O=C(NN1CCCCC1)c1nn(-c2ccc(Cl)cc2Cl)c2c1SCc1cc(Cl)ccc1-2
Second: COc1ccc(-c2ccc(C(=O)Nc3cc4ncc(CN5CCCCCC5)cc4cc3C)c(F)c2)cc1
The melting point of the first is lower: 148 °C for the first, 168 °C for the second.

`CCOC(=O)c1sc(-c2ccc(C#N)cc2)nc1CO` and `CCOC(=O)C(=O)Nc1cc(C#N)ccc1O` cannot be ordered by melting point: greater than 250 °C for the first, 295 °C for the second.

Compared with `C=C(CC(Cl)(Cl)Cl)c1cnc(Cl)c(Cl)c1`, `Oc1cc(Cl)c(Br)c(Cl)c1` is higher in melting point: 76 to 77 °C for the first, 118 to 120 °C for the second.

Compared with `O=C(Nc1cccc(S(=O)(=O)NCc2ccncc2)c1)c1cnn2c(C(F)(F)F)cc(-c3ccc(C(F)(F)F)cc3)nc12`, `O=C(NC1CC1)c1cccc(-c2cccn3c(=O)n(Cc4cccc(C(F)(F)F)c4)nc23)c1` is lower in melting point: 251 °C for the first, 157 to 158 °C for the second.

Compared with `C=CCOc1ccccc1NS(C)(=O)=O`, `COc1ccc2ccccc2c1/C=C/NC=O` is higher in melting point: 90 °C for the first, 160 to 162 °C for the second.

`CCCCCCCCCCCCCCCCCCN1CC(O)C1` and `CCCCCCCCS(=O)(=O)ON=C(C#N)c1cccs1` cannot be ordered by melting point: 75.5 to 78 °C for the first, 77 to 82 °C for the second.

Compared with `CCOc1cc(CCC2OC(=O)NC2=O)ccc1O` (stereo not given), `COc1ccoc1C1OC(=O)NC1=O` (stereo not given) is lower in melting point: 154 to 155 °C for the first, 102 to 104 °C for the second.

First: CON=C(c1ccccc1)c1ccccc1N
Second: CCOC(=O)Cc1ccc(C(=O)c2ccccc2)cc1[N+](=O)[O-]
The melting point of the first is higher: 138 °C for the first, 61 to 62 °C for the second.

Compared with `CC(=O)OCc1nc(C(Cl)Cl)cnc1N1C(=O)c2ccccc2C1=O`, `CC(=O)c1cc(C#N)c(OCc2ccccc2)nc1C` is lower in melting point: 117 to 118 °C for the first, 94 to 99 °C for the second.

First: O=C(O)Cn1cc(Cc2cccc([N+](=O)[O-])c2)c2ccccc21
Second: NC(=O)Cn1cc(-c2ccccc2)c2cc(Cl)ccc21
The melting point of the first is lower: 163 to 165 °C for the first, 220 to 221 °C for the second.

First: O=C(NC[C@@H]1CN2C(=O)C[C@H]2O1)C1CCCCC1 (racemic)
Second: CNC(=O)CN1CCC(O)C1=O (stereo not given)
The melting point of the first is lower: 83 to 85 °C for the first, 129 to 130 °C for the second.

Compared with `NS(=O)(=O)c1ccc(-c2cnn(C3=CC=CC(F)(F)C3F)c(=O)c2-c2ccc(F)cc2)cc1` (stereo not given), `CS(=O)(=O)c1ccc(-c2oc3ccccc3c(=O)c2-c2cccc(F)c2)cc1` is higher in melting point: 190 to 193 °C for the first, 225 °C for the second.

First: C=CCc1cc(-c2ccc(F)cc2)cc(C(=O)O)c1O
Second: CSc1nc(CC2CCN(c3ccc(F)cc3)CC2)nc(C(=O)NCC(=O)O)c1O
The melting point of the first is lower: 170 to 172 °C for the first, 228 to 230 °C for the second.

First: Cc1cc(C(C)(C)C)c(O)c(N)c1N
Second: NC(=O)c1cc2cc(Cl)ccc2nc1N
The melting point of the first is lower: 129 to 136 °C for the first, 250 to 251 °C for the second.

Compared with `O=C1OC(c2ccccc2)C(c2ccccc2)=C1C(=O)N1CCOCC1` (stereo not given), `O=c1c(Cc2ccccc2)c(O)c2cccc3c2n1C(c1ccccc1)C3` (stereo not given) is higher in melting point: 204 to 206 °C for the first, 252 to 254 °C for the second.

First: Cc1ccccc1CN1CCc2ccc(C(=O)CCC(=O)N3CCC(c4ccc(Cl)cc4)CC3)cc2CC1
Second: CCCCc1nc2ccc(NC(=O)C3CCCCC3C(=O)O)cc2n1Cc1ccc(-c2ccccc2C(=O)O)cc1 (stereo not given)
The melting point of the first is lower: 108 to 109 °C for the first, 186 to 188 °C for the second.

First: CCC1c2nc[nH]c2CCN1C(=S)NC (stereo not given)
Second: CCSC(=S)N1C(CO)Cc2c([nH]c3ccccc23)C1CC (stereo not given)
The melting point of the first is higher: 230 °C for the first, 82 to 84 °C for the second.

Compared with `COc1ccc(CNc2nc(SC)ncc2C(=O)c2cccnc2)cc1Cl`, `CNC(=O)c1ccccc1Nc1nc(Nc2ccc3c(c2)OCCNC3=O)ncc1Cl` is higher in melting point: 141 to 142 °C for the first, 293 to 295 °C for the second.

`OCc1cnc2sc3ccccc3n12` and `Cn1ncc2c3[nH]ncc3ccc21` cannot be ordered by melting point: 183 to 184 °C for the first, 180 to 184 °C for the second.

Compared with `CCC1C=CCCC1C(O)C(N)=O` (stereo not given), `CC(C)CCOc1ccc(C(=O)C(O)O)cc1` is lower in melting point: 156 to 158 °C for the first, 80 to 85 °C for the second.

First: Cc1cc(=O)c(-c2ccccc2)c(-c2ccc(S(N)(=O)=O)cc2)o1
Second: Cc1oc(-c2ccccc2)nc1Cc1cc2cc(C#N)ccc2o1
The melting point of the first is higher: 218 °C for the first, 139 to 140 °C for the second.

Compared with `Nc1ccc(S(=O)(=O)N2CCCC(c3ccc(Cl)cc3)=N2)cc1`, `CCCCCc1ccc(S(=O)(=O)n2c(CCC(=O)O)cc3cc(Cl)ccc32)cc1` is lower in melting point: 205 to 206 °C for the first, 131 to 134 °C for the second.

First: O=C1c2ccccc2S(=O)(=O)N1/C=C/CSc1nnnn1-c1ccccc1
Second: O=C1NC(=O)C(c2ccccc2)(c2c[nH]c3ccccc23)N1 (stereo not given)
The melting point of the first is lower: 191 to 193 °C for the first, 302 to 303 °C for the second.

Compared with `COc1ccc(C(=O)NCc2c(C=O)cc(C)n2CCNC(C)=O)cc1OC`, `COc1cc(Cl)c(C(=O)Nc2ccc(C(C)(C)C#N)cc2)cc1OC` is lower in melting point: 165 to 167 °C for the first, 142 to 144 °C for the second.

First: CCn1cc(C(=O)O)c(=O)c2cnc(N3CCN(C)CC3)nc21
Second: CC(C)C1(C)N=C(c2ncc(C3OCCCCO3)cc2C(=O)O)NC1=O (stereo not given)
The melting point of the first is higher: 232 to 233 °C for the first, 60 to 69 °C for the second.

Compared with `CCOC(=O)COc1cc(F)c(-c2ncnc(C(F)(F)F)c2Cl)cc1[N+](=O)[O-]`, `Cn1c(C(F)(F)F)ccc(-c2cc([N+](=O)[O-])c(Cl)cc2F)c1=O` is higher in melting point: 127 to 129 °C for the first, 139 to 140 °C for the second.

First: Cc1c(CNCC2CCOCC2)n(C)c2c(C)c(NC(=O)c3ccc(OC[C@@H]4CCCO4)cc3)ccc12
Second: O=C(NCCOc1ccc(CC(Oc2cccc(F)c2)C(=O)O)cc1)c1ccc(-c2ccccn2)cc1 (stereo not given)
The melting point of the first is higher: 173 to 174 °C for the first, 136 to 138 °C for the second.

`COc1ccc(C(=O)c2cc3ccncc3[nH]2)cc1` and `CC(C)(CCO)c1ccc(C(=O)Nc2cn3cc(-n4ccnc4)ccc3n2)cc1` cannot be ordered by melting point: 225 to 228 °C for the first, 225 to 227 °C for the second.

First: O=C1NC(=O)C(CC#Cc2ccc(Cl)cc2)(S(=O)(=O)c2cc(Cl)c(Cl)s2)S1 (stereo not given)
Second: CCOC(=O)C1C(=O)N(Cc2ccc(Br)cc2F)C(=O)c2cccn21 (stereo not given)
The melting point of the first is higher: 160 °C for the first, 114 to 115 °C for the second.

First: COC(=O)CCSc1nc(C(N)=O)cs1
Second: CCOC(=O)Cc1sc(SCc2ccc(C(=O)OC)s2)nc1C
The melting point of the first is higher: 151 to 152 °C for the first, 49 to 51 °C for the second.

First: Cc1c(Br)c2c(c(C)c1NC(=O)OC(C)(C)C)CC(C)O2 (stereo not given)
Second: COC(=O)c1ccc2sc(C)c(Br)c2c1
The melting point of the first is higher: 115 to 116 °C for the first, 84 to 85 °C for the second.

`CC(C)C(=O)CCC(C)C1CCC2C3C=CC4=CC(=O)C5OC5C4(C)C3CCC12C` (stereo not given) and `COc1cccc(CCc2ccccc2OC[C@H]2CCCN(C(=O)OC(C)(C)C)C2)c1` fall in the same range of melting point: 150 to 152 °C for the first, 150 to 152 °C for the second.

Compared with `COc1ccc(-c2cncc(OC3SCC(O)C(O)C3O)c2)cc1OC` (stereo not given), `COc1cc2ccc(-c3ccc(C(C)C)cc3)cc2oc1=O` is lower in melting point: 211 °C for the first, 127 °C for the second.

First: CCN(CCO)c1ccc(C(=O)OC)cc1
Second: CC(CNC(=O)c1ccc(Oc2ccc(F)cc2)o1)N(O)C(N)=O (stereo not given)
The melting point of the first is lower: 61 to 64 °C for the first, 180 to 181 °C for the second.

First: CCCCn1c(=O)n(C(C)C)c(=O)c2[nH]c(C)nc21
Second: CCCCc1nc2c(N)nc3ccc(O)cc3c2n1CCCCNC(=O)N1CCOCC1
The melting point of the first is lower: 172 to 173 °C for the first, 177 to 182 °C for the second.

Compared with `COC(=O)CNS(=O)(=O)c1ccc(N2CCC(NC[C@H](O)c3ccc(O)c(NS(C)(=O)=O)c3)CC2)cc1`, `CCOc1cc2c(cc1S(=O)(=O)NC(=S)NC)C(CNC(=O)N1CC(C)=C(CC)C1=O)CCO2` (stereo not given) is higher in melting point: 123 to 125 °C for the first, 178 °C for the second.

Compared with `CCOC(=O)Cc1c(C(=O)O)c(C)cn1C`, `CCOC(=O)C1Cc2cc(C(=O)c3ccccc3F)c(O)c(Cl)c2O1` (stereo not given) is lower in melting point: 182 to 185 °C for the first, 119 to 120 °C for the second.

First: COc1cc2cc(CO)c(CO)c(-c3ccnc(-n4c(=O)ccc5ccccc54)c3)c2cc1OC
Second: CN(Cc1ccccc1)Cc1c(-c2ccc(N)cc2)sc2c1c(=O)n(-c1ccccc1)c(=O)n2Cc1c(F)cccc1F
The melting point of the first is higher: greater than 230 °C for the first, 205 to 207 °C for the second.

First: CN1CC[C@@H]2CC(=O)c3cc(-c4ccccc4)ccc3[C@@H]2C1 (relative stereo)
Second: N#CC1Nc2ccccc2N2CCc3cccc1c32 (stereo not given)
The melting point of the first is higher: greater than 250 °C for the first, 185 to 186 °C for the second.

First: O=C1CCCCCC1=CC(=O)c1ccccc1
Second: O=C(Cc1ccc(Oc2ccccc2)cc1)NCCC1=CCCCC1
The melting point of the first is higher: 91 to 92 °C for the first, 74 to 75 °C for the second.

First: COc1ccc2c(=O)c(C#N)c(N)oc2c1
Second: CC1(C)Oc2ccc(C#N)cc2C(n2ccc(O)cc2=O)C1O (stereo not given)
The melting point of the first is higher: 300 °C for the first, 248 to 250 °C for the second.

First: c1ccc(COc2ccc(OCC3CC3)cc2)cc1
Second: O=C(Nc1ccccc1S(=O)(=O)c1ccccc1)N[C@@H](Cc1ccc(NCc2c(Cl)cccc2Cl)cc1)C(=O)O
The melting point of the first is lower: 96 °C for the first, 116 °C for the second.

Compared with `Cc1cccc(N(C)c2nc(Cl)nc(Cl)n2)c1C`, `CN(C)c1ncc(-c2cccc(Nc3ccc(-n4cccc4)cc3[N+](=O)[O-])c2)cn1` is higher in melting point: 140 to 141 °C for the first, 166 to 168 °C for the second.

Compared with `OC(c1cccc(Br)n1)(C(F)(F)F)C(F)(F)F`, `O=C1C2=C(SCCO2)C(O)N1c1ccc(Cl)cn1` (stereo not given) is higher in melting point: 67 to 69 °C for the first, 202 °C for the second.

First: CC(=O)c1cc(Br)c(OP(=O)(O)O)c(Br)c1
Second: CNc1cc(OC)c(OC)cc1[N+](=O)[O-]
The melting point of the first is higher: 149 to 154 °C for the first, 147 °C for the second.

First: COc1cc2c(Nc3cc(OC)c(OC)c(OC)c3)c(C#N)cnc2cc1/C=C/CCN1CCN(C)CC1
Second: CCCCCCC(C)(C)c1cc(OC)c(C2=C[C@@H]3CC[C@@]2(CO)C3(C)C)c(OC)c1
The melting point of the first is higher: 122 to 124 °C for the first, 49 to 51 °C for the second.
